Test results taken from patent publication US10913728B2, “O-substituted hydroxamic acids” (The Johns Hopkins University, priority 2016, dated 2021).
Marks after values point to notes of the source that are not given here.

Assays:
[1] = Stability of NHPY-1 incubated with PY-2 by 1H NMR spectroscopy; format: physicochemical; details: 1H NMR spectroscopy at pH 7.4 and 10
Excerpt: Based on reactivity studies of bis-heteroatom-substituted amides (Glover, S. A. In The Chemistry of Hydroxylamines, Oximes, and Hydroxamic Acids, Part 2; Rappoport, Z., Liebman, J. F., Eds.; John Wiley & Sons: Chichester, West Sussex, 2009, p 839-923), the formation of NHPY-1 may be possible through the direct attack of PY-2 on the amide nitrogen of the hydroxamic acid moiety of […] (Scheme 4).

[2] = cited from earlier work
[3] = 1H NMR protocol: decomposition of the compounds and relative product yields in aqueous solution; format: physicochemical; details: for Carboxylic Acid relative product yield / NHPY relative product yield / PY (corresponding pyrazolone) relative product yield: decomposition in aqueous solution, 1H NMR
Excerpt: A ^1H NMR spectroscopy protocol was used to examine the decomposition of the compounds of the disclosure and measure the relative product yields in aqueous solution (Guthrie, D. A.; Ho, A.; Takahashi, C. G.; Collins, A.; Morris, M.; Toscano, J. P. J. Org. Chem. 2015, 80, 1338-1348; and Guthrie, D. A.; Nourian, S.; Takahashi, C. G.; Toscano, J. P. J. Org. Chem. 2015, 80, 1349-1356).

[4] = Nitroxyl production via N2O quantification in the headspace (GC), relative to Angeli's salt standard; format: physicochemical; parameters: key to % HNO: Stable; details: for % HNO: N2O yield relative to AS standard, phosphate buffer with DTPA, 37° C.
Excerpt: Nitrous oxide (N2O) is produced via the dimerization and dehydration of HNO, and is the most common marker for nitroxyl production (Fukuto et al., Chem. Res. Toxicol. 18:790-801 (2005)). […] Using either nitrous oxide gas or Angeli's salt (“AS”) as a standard, the relative amounts of N2O released from compounds of the disclosure is examined via gas chromatography (“GC”) headspace analysis.
Another procedure for determining N2O released from compounds of the disclosure is as follows. A Varian CP-3800 instrument equipped with a 1041 injector, electron capture detector, and a 25 m 5 Å molecular sieve capillary column was applied for the analysis of nitrous oxide (N2O). Grade 5.0 nitrogen was used as both the carrier (8 mL/min) and the make-up (22 mL/min) gas. For all measurements, the column oven temperature was kept constant at 150° C., and the injector oven and the detector oven were held at 200° C. and 300° C., respectively. A 100 μL gastight syringe with a sample-lock was used for all gas injections. Samples were prepared in 6 mL Wheaton Clr headspace vials with volumes pre-measured for sample uniformity (actual vial volume ranges from 5.8-6.3 mL). Vials were charged with 3 mL of phosphate buffer containing the metal chelator, diethylenetriaminepentaacetic acid (DTPA), and fit with rubber septa and 20 mm aluminum seals. The vials were purged with argon and equilibrated for at least 10 minutes at 37° C. in a dry block heater. A stock solution of Angeli's salt (AS) was prepared in 10 mM sodium hydroxide, and compounds of the disclosure (10 mM) were prepared in acetonitrile and used immediately after preparation. 30 μL of the stock solutions was transferred into vials using a gastight syringe, yielding final concentrations of 0.5, 0.1, and 0.02 mM. Substrates were then incubated long enough to ensure complete decomposition and equilibration of N2O with the headspace. Depending on the concentration of the compound of the disclosure, 60 or 20 μL of the headspace was sampled and injected three times using a gastight syringe with a sample lock. The N2O yield was averaged and reported relative to the AS standard.

[5] = UV-Vis protocol: decomposition kinetics, donor half-lives at pH 7.4 and 37° C.; format: physicochemical; details: buffer, pH 7.4, 37° C.
Description: A UV-VIS protocol was used to determine the decomposition kinetics of Compounds 1-5. According to this protocol, decomposition of the test compound was monitored by UV-Vis spectroscopy to measure donor half-lives at pH 7.4 and 37° C. (Guthrie, D. A.; Kim, N. Y.; Siegler, M. A.: Moore, C. D.; Toscano, J. P. J. Am. Chem. Soc. 2012, 134, 1962-1965; and Guthrie, D. A.; Ho, A.; Takahashi, C. G.; Collins, A.; Morris, M.; Toscano, J. P. J. Org. Chem. 2015, 80, 1338-1348).

[6] = 1H NMR mechanistic study: decomposition of Compound 1 in the presence of 3,4-dimethyl-1-phenylpyrazolone (PY-2); format: physicochemical; details: 0.5 mM compound with 0.5 mM PY-2, 0.25 M phosphate buffer, 0.2 mM DTPA, pH 7.4, 37° C., argon
Description: A ^1H NMR Spectroscopy Protocol was used to confirm the formation of nitroso carbonyls following decomposition of Compound 1. In this protocol, 0.5 mM Compound 1 was incubated in the presence of 0.5 mM 3,4-dimethyl-1-phenylpyrazolone in 0.25 M phosphate buffer with 0.2 mM DTPA at pH 7.4, 80% H2O, 10% D2O, and 10% DMSO-d6 at 37° C. under argon. Spectra were collected at the start of the experiment and after complete decomposition.

| SMILES | stability on incubation with PY-2 [1] | Carboxylic Acid relative product yield [3] | NHPY relative product yield [3] | PY (corresponding pyrazolone) relative product yield [3] | NHPY-1 yield from decomposition of Compound 1 ([3]; in the absence of PY-2) [%] | acetate yield from decomposition of Compound 1 ([3]; in the absence of PY-2) [%] | half-life ([5]; UV-Vis spectroscopy) [min] | formation of NHPY-1 upon decomposition [6] | formation of NHPY-1 upon decomposition ([6]; listed as Compound I) | half-life [5] [min] | pKa [2] | % HNO ([4]; 20 μM compound) | % HNO ([4]; 100 μM compound) | % HNO ([4]; 500 μM compound) | HNO yield from decomposition of Compound 1 ([4]; in the absence of PY-2) [%] |
| --- | --- | --- | --- | --- | --- | --- | --- | --- | --- | --- | --- | --- | --- | --- | --- |
| CO/N=C(\C)C1(ONC(=O)OC)C(=O)N(C)N=C1C (stereo not drawn) [Compound 4, methyl (4-(1-(methoxyimino)ethyl)-1,3-dimethyl-5-oxo-4,5-dihydro-1H-pyrazol-4-yl)oxycarbamate] | – | 14 | 86 | 14 | – | – | 1.2 | – | – | – | – | 29% | 17% | 8% | – |
| CC(=O)NOC1(C)C(=O)N(c2ccccc2)N=C1C (stereo not drawn) [Compound 2, N-((3,4-dimethyl-5-oxo-1-phenyl-4,5-dihydro-1H-pyrazol-4-yl)oxy)acetamide] | – | – | – | – | – | – | – | – | – | – | – | a | a | a | – |
| CO/N=C(\C)C1(ONC(=O)OC(C)(C)C)C(=O)N(c2ccccc2)N=C1C (stereo not drawn) [Compound 5, tert-butyl (4-(1-(methoxyimino)ethyl)-3-methyl-5-oxo-1-phenyl-4,5-dihydro-1H-pyrazol-4-yl)oxycarbamate] | – | – | – | – | – | – | – | – | – | – | – | 35^c % | 26% | – | – |

Now from value to molecule, other results behind:

| stability on incubation with PY-2 [1] | Carboxylic Acid relative product yield [3] | NHPY relative product yield [3] | PY (corresponding pyrazolone) relative product yield [3] | NHPY-1 yield from decomposition of Compound 1 ([3]; in the absence of PY-2) [%] | acetate yield from decomposition of Compound 1 ([3]; in the absence of PY-2) [%] | half-life ([5]; UV-Vis spectroscopy) [min] | formation of NHPY-1 upon decomposition [6] | formation of NHPY-1 upon decomposition ([6]; listed as Compound I) | half-life [5] [min] | SMILES | pKa [2] | % HNO ([4]; 20 μM compound) | % HNO ([4]; 100 μM compound) | % HNO ([4]; 500 μM compound) | HNO yield from decomposition of Compound 1 ([4]; in the absence of PY-2) [%] |
| --- | --- | --- | --- | --- | --- | --- | --- | --- | --- | --- | --- | --- | --- | --- | --- |
| stability was confirmed | – | – | – | – | – | – | – | – | – | CON=C(C)C1(N(O)C(C)=O)C(=O)N(c2ccccc2)N=C1C (stereo not drawn) [NHPY-1, N-hydroxy-N-(4-(1-(methoxyimino)ethyl)-3-methyl-5-oxo-1-phenyl-4,5-dihydro-1H-pyrazol-4-yl)acetamide] | 10.0 | – | – | – | – |
| – | 73 | 26 | 74 | 26 | 73 | 25 | not formed | quantitative | – | CO/N=C(\C)C1(ONC(C)=O)C(=O)N(c2ccccc2)N=C1C (stereo not drawn) [Compound 1, N-((4-(1-(methoxyimino)ethyl)-3-methyl-5-oxo-1-phenyl-4,5-dihydro-1H-pyrazol-4-yl)oxy)acetamide] | – | 91% | 75% | 70% | 70 |
| – | 27 | 72 | 28 | – | – | – | – | – | 0.6 | CO/N=C(\C)C1(ONC(=O)OC)C(=O)N(c2ccccc2)N=C1C (stereo not drawn) [Compound 3, methyl (4-(1-(methoxyimino)ethyl)-3-methyl-5-oxo-1-phenyl-4,5-dihydro-1H-pyrazol-4-yl)oxycarbamate] | – | 41% | 29% | 20% | – |
